These results are taken from patent US20100137232A1 (priority 2004, published 2010).

For series [1] the following is noted: cited from earlier work.
For series [2] the following is noted: humans, cited from earlier work.
The conditions of series [3]: in vivo. The source says:
In the specification, the terms ‘eye-acceptable’ and ‘acceptable to the eye’ (as well as similar terms) are intended to mean that no lachrymatory effect is seen and/or no irritation of, and/or damage to, the surface of the eye (cornea) and/or the surrounds of the eye (the lids, tear ducts etc.) and/or the deeper structures within the eye (lens, muscles etc.).

In the next series the test system is stromal proteins. The settings on record: cited from earlier work.

`C[C@H]1O[C@@H](O[C@H]2[C@@H](O)C[C@H](O[C@H]3[C@@H](O)C[C@H](O[C@H]4CC[C@@]5(C)[C@H](CC[C@@H]6[C@@H]5C[C@@H](O)[C@]5(C)[C@@H](C7=CC(=O)OC7)CC[C@]65O)C4)O[C@@H]3C)O[C@@H]2C)C[C@H](O)[C@@H]1O` [Digoxin]: the solubility in chloroform entry in series [1] (chloroform) is recorded as “slightly soluble”. For the same molecule, in series [1] (diluted (50%) alcohol), the “solubility in diluted (50%) alcohol” value is listed as “slightly soluble”. In addition, in series [1] (ether), the solubility in ether entry is “practically insoluble”. Also, the solubility in pyridine entry in series [1] (pyridine) is “freely soluble”. The solubility in water entry in series [1] (water) was “practically insoluble”. For the same molecule, the bioavailability result in series [2] (calculated from an oral dosage form) was “about 80%”. Also, the half-life in series [2] (oral dosage form) is 42 h.
Regarding `CCO` [ethanol], the “maximum concentration which is acceptable in and to the eye” value in series [3] turned out to be 2.5 v/v %. Also, in the series with stromal proteins, the “toxic effect on stromal proteins” value was “direct toxic effect”.

The term half-life denotes how long it takes for the measured level to halve.
